Values after ≈ are worked out from the molar mass of the structure shown. Read-outs that look alike come from different tables or passages of the source.
Tested on: 100 A. baumannii strains (50 MDR, 50 non-MDR)
Experiment: MIC broth microdilution at IHMA Europe, panel of 100 strains
Format: cell-based
Settings: for MIC / MIC50 / MIC90: Acinetobacter baumannii; for MIC50: read-out: MIC 50; for MIC90: read-out: MIC 90

SMILES: CN(C)c1cc(NC(=O)CNC(C)(C)C)c(O)c2c1C[C@H]1C[C@H]3[C@H](N(C)C)C(O)=C(C(N)=O)C(=O)[C@@]3(O)C(O)=C1C2=O [Tigecycline, tigecycline]
- MIC (A. baumannii IHMA 2154584, Israel 2020, MDR, read-out: MIC): 2 µg/mL (≈ 3.41 µM)
- MIC (A. baumannii IHMA 2155340, Kenya 2020, MDR, read-out: MIC): 4 µg/mL (≈ 6.83 µM)
- MIC (A. baumannii IHMA 2156634, Turkey 2020, MDR, read-out: MIC): 4 µg/mL (≈ 6.83 µM)
- MIC (A. baumannii IHMA 2156709, Turkey 2020, MDR, read-out: MIC): 4 µg/mL (≈ 6.83 µM)
- MIC (A. baumannii IHMA 2157614, Australia 2020, Non-MDR, read-out: MIC): 0.25 µg/mL (≈ 0.427 µM)
- MIC (A. baumannii IHMA 2177232, Lithuania 2020, MDR, read-out: MIC): 8 µg/mL (≈ 13.7 µM)
- MIC (A. baumannii IHMA 2177489, Lithuania 2020, MDR, read-out: MIC): 4 µg/mL (≈ 6.83 µM)
- MIC (A. baumannii IHMA 2178574, Ukraine 2020, Non-MDR, read-out: MIC): 0.25 µg/mL (≈ 0.427 µM)
- MIC (A. baumannii IHMA 2180134, Malaysia 2020, Non-MDR, read-out: MIC): 0.25 µg/mL (≈ 0.427 µM)
- MIC (A. baumannii IHMA 2180142, Malaysia 2020, MDR, read-out: MIC): 2 µg/mL (≈ 3.41 µM)
- MIC (A. baumannii IHMA 2181370, Morocco 2020, MDR, read-out: MIC): 1 µg/mL (≈ 1.71 µM)
- MIC (A. baumannii IHMA 2183729, Argentina 2020, MDR, read-out: MIC): 1 µg/mL (≈ 1.71 µM)
- MIC (A. baumannii IHMA 2183849, Argentina 2020, Non-MDR, read-out: MIC): 0.25 µg/mL (≈ 0.427 µM)
- MIC (A. baumannii IHMA 2184382, Japan 2020, Non-MDR, read-out: MIC): 0.12 µg/mL (≈ 0.205 µM)
- MIC (A. baumannii IHMA 2193375, Venezuela 2020, MDR, read-out: MIC): 1 µg/mL (≈ 1.71 µM)
- MIC (A. baumannii IHMA 2193485, Venezuela 2020, Non-MDR, read-out: MIC): 0.12 µg/mL (≈ 0.205 µM)
- MIC (A. baumannii IHMA 2193607, Venezuela 2020, MDR, read-out: MIC): 0.5 µg/mL (≈ 0.854 µM)
- MIC (A. baumannii IHMA 2195460, Italy 2020, MDR, read-out: MIC): 1 µg/mL (≈ 1.71 µM)
- MIC (A. baumannii IHMA 2196914, South Africa 2020, MDR, read-out: MIC): 4 µg/mL (≈ 6.83 µM)
- MIC (A. baumannii IHMA 2196959, South Africa 2020, MDR, read-out: MIC): 2 µg/mL (≈ 3.41 µM)
- MIC (A. baumannii IHMA 2203763, Spain 2020, MDR, read-out: MIC): 2 µg/mL (≈ 3.41 µM)
- MIC (A. baumannii IHMA 2205144, Korea, South 2020, MDR, read-out: MIC): 2 µg/mL (≈ 3.41 µM)
- MIC (A. baumannii IHMA 2206459, Taiwan 2020, MDR, read-out: MIC): 2 µg/mL (≈ 3.41 µM)
- MIC (A. baumannii IHMA 2206507, Taiwan 2020, Non-MDR, read-out: MIC): 0.12 µg/mL (≈ 0.205 µM)
- MIC (A. baumannii IHMA 2212575, Hungary 2020, Non-MDR, read-out: MIC): 0.5 µg/mL (≈ 0.854 µM)
- MIC (A. baumannii IHMA 2215307, Hong Kong 2020, Non-MDR, read-out: MIC): 0.25 µg/mL (≈ 0.427 µM)
- MIC (A. baumannii IHMA 2216586, Taiwan 2020, MDR, read-out: MIC): 2 µg/mL (≈ 3.41 µM)
- MIC (A. baumannii IHMA 2223200, Colombia 2020, Non-MDR, read-out: MIC): 0.25 µg/mL (≈ 0.427 µM)
- MIC (A. baumannii IHMA 2224017, Panama 2020, MDR, read-out: MIC): 2 µg/mL (≈ 3.41 µM)
- MIC (A. baumannii IHMA 2224303, Panama 2020, Non-MDR, read-out: MIC): 0.5 µg/mL (≈ 0.854 µM)
- MIC (A. baumannii IHMA 2231797, Greece 2020, MDR, read-out: MIC): 4 µg/mL (≈ 6.83 µM)
- MIC (A. baumannii IHMA 2233099, Guatemala 2020, MDR, read-out: MIC): 2 µg/mL (≈ 3.41 µM)
- MIC (A. baumannii IHMA 2233430, Kazakhstan 2020, MDR, read-out: MIC): 4 µg/mL (≈ 6.83 µM)
- MIC (A. baumannii IHMA 2233548, Kazakhstan 2020, Non-MDR, read-out: MIC): 0.12 µg/mL (≈ 0.205 µM)
- MIC (A. baumannii IHMA 2238964, Thailand 2020, MDR, read-out: MIC): 1 µg/mL (≈ 1.71 µM)
- MIC (A. baumannii IHMA 2239052, Thailand 2020, Non-MDR, read-out: MIC): 0.12 µg/mL (≈ 0.205 µM)
- MIC (A. baumannii IHMA 2261047, Belgium 2020, MDR, read-out: MIC): 1 µg/mL (≈ 1.71 µM)
- MIC (A. baumannii IHMA 2261633, Canada 2020, Non-MDR, read-out: MIC): 0.25 µg/mL (≈ 0.427 µM)
- MIC (A. baumannii IHMA 2274234, South Africa 2020, MDR, read-out: MIC): 2 µg/mL (≈ 3.41 µM)
- MIC (A. baumannii IHMA 2274364, South Africa 2020, MDR, read-out: MIC): 4 µg/mL (≈ 6.83 µM)
- MIC (A. baumannii IHMA 2275237, Chile 2020, Non-MDR, read-out: MIC): 0.12 µg/mL (≈ 0.205 µM)
- MIC (A. baumannii IHMA 2275751, Jordan 2020, MDR, read-out: MIC): 2 µg/mL (≈ 3.41 µM)
- MIC (A. baumannii IHMA 2316205, United States 2020, MDR, read-out: MIC): 4 µg/mL (≈ 6.83 µM)
- MIC (MDR n = 50, read-out: MAX (maximum MIC; all strains inhibited)): 8 µg/mL (≈ 13.7 µM)
- MIC50 (MDR n = 50): 2 µg/mL (≈ 3.41 µM)
- MIC90 (MDR n = 50): 4 µg/mL (≈ 6.83 µM)
- MIC (MDR n = 50, read-out: MIN (minimum MIC)): 0.5 µg/mL (≈ 0.854 µM)
- MIC (all isolates n = 100, read-out: MAX (maximum MIC; all strains inhibited)): 8 µg/mL (≈ 13.7 µM)
- MIC50 (all isolates n = 100): 0.5 µg/mL (≈ 0.854 µM)
- MIC90 (all isolates n = 100): 4 µg/mL (≈ 6.83 µM)
- MIC (all isolates n = 100, read-out: MIN (minimum MIC)): 0.06 µg/mL (≈ 0.102 µM)
- MIC (non-MDR n = 50, read-out: MAX (maximum MIC)): 4 µg/mL (≈ 6.83 µM)
- MIC50 (non-MDR n = 50): 0.25 µg/mL (≈ 0.427 µM)
- MIC90 (non-MDR n = 50): 0.5 µg/mL (≈ 0.854 µM)
- MIC (non-MDR n = 50, read-out: MIN (minimum MIC)): 0.06 µg/mL (≈ 0.102 µM)
- MAX (maximum MIC; all strains inhibited) (MDR n = 50): 8 µg/mL
- MAX (maximum MIC; all strains inhibited) (all isolates n = 100): 8 µg/mL

Reference: paper PMC10041525, “New Dual Inhibitors of Bacterial Topoisomerases with Broad-Spectrum Antibacterial Activity and In Vivo Efficacy against Vancomycin-Intermediate Staphylococcus aureus” (Journal of Medicinal Chemistry, 2023)
